# Reference: US6555698B1, “Chemiluminescent substrates for neuraminidase, assays for detection of neuraminidase and kits therefor” (Tropix, Inc., priority 1998, dated 2003)
# Where two headings read alike, the source gives them in different places.
# Columns and labels:
# Format in all cases: biochemical
# Oxford sialidase [1] = experiment: Turner luminometer assay, incubation with Oxford sialidase at pH 5.5, then AMP pH 10 injection (Experiments 1-3)
# Protocol: Next, 0.2 units of Oxford Enzyme were diluted with 400 microliters of […]. 200 microliters of the enzyme (0.1 units) were then treated with 10 microliters of the dioxetane stock and incubated at 37° C. for 15 minutes. The solution was then placed in a Turner luminometer. Light was detected at a constant 80 RLU at a pH of 5.5. All Turner readings were calibrated to 31.5° C.
# 5 microliters of the dioxetane stock prepared in Experiment 1 was added to 0.05 units of Oxford sialidase in 200 microliters of the pH 5.5 buffer. The solution (approximately a 110 micromolar substrate) was incubated at 37° C. for 15 minutes. The solution was then placed in a Turner luminometer, and steady light emission at about 55 RLU was noted (see FIG. 6). Next, 400 microliters of AMP pH 10 buffer was injected to produce an off-scale light spike (i.e., greater than 10,000 RLU).
# Experiment 2 was repeated with a 110 micromolar substrate in the presence of 0.025 units of the enzyme. FIG. 7 illustrates that at a pH of 5.5, the light level obtained (56 RLU) was similar to that obtained in Experiment 2. […] Next, an additional 400 microliters of the AMP pH 10 buffer was added, which produced a light peak at 8860 RLU and similar decay kinetics as in Experiment 2.
# Oxford sialidase [2] = experiment: One step chemiluminescence at pH 7.7 after adding Oxford sialidase (Experiment 6); settings: pH 7.7, 0.25 units sialidase
# Protocol: After incubation, 0.25 units of Oxford sialidase in 50 microliters of 50 micromolar acetate buffer was added. Chemiluminescence was spontaneously produced, rising to a maximum of 1380 RLU at 3.25 minutes (see FIG. 10).
# sialidase [3] = system: sialidase
# From the text: FIG. 12A is a graph showing chemiluminescence (RLU) as a function of sialidase dilution using a methylumbelliferyl-N-acetylneuraminic acid salt fluorescent substrate in a 0.05 M sodium acetate/0.1M NaCl buffer.
# FIG. 12B is a graph showing signal to noise ratio (S/N) as a function of sialidase dilution for a methylumbelliferyl-N-acetylneuraminic acid salt fluorescent substrate in a 0.05 M sodium acetate/0.1M NaCl buffer.
# The results and conditions are summarized in Table B and depicted graphically in FIGS. 12A and 12B.
# sialidase [4] = system: sialidase; remark: listed apart in the source
compound,measurement,setting,value
COC1(c2ccc(Cl)c(O[C@]3(C(=O)[O-])C[C@H](O)[C@@H](NC(C)=O)[C@H]([C@H](O)[C@H](O)CO)O3)c2)OOC12C1CC3CC2CC(Cl)(C3)C1.[Na+] (stereo partly drawn) [dioxetane 489-102],light peak after AMP pH 10 buffer,Oxford sialidase [1]; 0.025 units enzyme,8860 RLU
same,light level at pH 5.5,"Oxford sialidase [1]; 0.025 units enzyme, 110 micromolar substrate",56 RLU
same,light emission relative to no enzyme noise at pH 5.5,Oxford sialidase [1]; 0.05 units sialidase,about 275 times
same,light spike after AMP pH 10 buffer,Oxford sialidase [1]; 0.05 units sialidase,"greater than 10,000 RLU"
same,steady light emission at pH 5.5,"Oxford sialidase [1]; 0.05 units sialidase, approximately 110 micromolar substrate, 37° C. 15 minutes",about 55 RLU
same,correlation of light emission at pH 5.5 with enzyme concentration,Oxford sialidase [1]; 0.05 versus 0.025 units,did not correlate with enzyme concentration
same,peak light emission after 0.1 AMP pH 10 injection,Oxford sialidase [1]; 0.1 units enzyme,"greater than 10,000 RLU"
same,light detected at pH 5.5,"Oxford sialidase [1]; 0.1 units enzyme, 10 microliters stock, 37° C. 15 minutes",80 RLU
same,substrate consumption during the incubation time,"Oxford sialidase [1]; 0.1 units enzyme, 37° C. 15 minutes",near complete substrate consumption
same,time of maximum chemiluminescence,Oxford sialidase [2],3.25 min
same,maximum chemiluminescence,Oxford sialidase [2]; 31.5° C.,1380 RLU
Methylumbelliferyl-N-acetylneuraminic acid salt,RLU,sialidase [3],75078 RLU
same,S/N,sialidase [3],2.74
same,RLU,sialidase [3]; dilution 1000,4209078 RLU
same,S/N,sialidase [3]; dilution 1000,153.62
same,RLU,sialidase [3]; dilution 5000,1171002 RLU
same,S/N,sialidase [3]; dilution 5000,42.74
same,RLU,sialidase [3]; dilution 25000,263218 RLU
same,S/N,sialidase [3]; dilution 25000,9.61
same,RLU,sialidase [3]; dilution 625000,32200 RLU
same,S/N,sialidase [3]; dilution 625000,1.18
same,RLU,sialidase [3]; dilution 3125000,27538 RLU
same,S/N,sialidase [3]; dilution 3125000,1.01
same,RLU,sialidase [3]; dilution 15625000,28231 RLU
same,S/N,sialidase [3]; dilution 15625000,0.96
same,sensitivity compared with neuraminidase-Star substrate,sialidase [4],inferior sensitivity
same,signal-to-noise ratio,"sialidase [4]; dilution of 1:40,000",1.79
